The text below walks through data of patent publication US20240131032A1, “AN ACTIVITY-GUIDED MAP OF ELECTROPHILE-CYSTEINE INTERACTIONS IN PRIMARY HUMAN IMMUNE CELLS” (The Scripps Research Institute, priority 2019, published 2024).

The target in the assay is T1, MYD88 (Homo sapiens, UniProt Q99836).
T1 construct: endogenous in cells
Nature of the assay: isoTOP-ABPP and TMT-ABPP cysteine engagement, MYD88. Format: binding. As for the experimental part: Activated or expanded T cells were re-suspended in RPMI media supplemented with 10% FBS, L-glutamine (2 mM), penicillin (100 U/mL), and streptomycin (100 μg/mL) at 2×10^6 cells/mL. The compounds were added to cells as 1000×DMSO stocks and mixed well with the media by pipetting up and down after addition. The cells were kept at 37° C. in 5% CO2 containing incubators for 3 h (or otherwise specified times), then pelleted by centrifugation (524 g, 5 min, 4° C.), washed with cold PBS (10 mL) and transferred to Eppendorf tubes (1 mL PBS). The cells were pelleted again (524 g, 5 min, 4° C.), flash-frozen, and kept at −80° C. until further analysis.
Activated or expanded primary human T cells were re-suspended in RPMI (1×10^6 cells/mL) containing 10% fetal bovine serum (FBS), penicillin (100 U/mL), streptomycin ([…]), and L-glutamine (2 mM). The cells were treated with DMSO or compounds for 3 h, pelleted (524 g, 5 min), washed with PBS, and lysed by sonication (2×8 pulses). Soluble and particulate proteomic fractions were separated by ultracentrifugation (100,000 g, 45 min), and protein concentration was normalized to 1.7 mg/mL using a standard DC protein assay (Bio-Rad). The resulting proteomes were analyzed by competitive isotopic Tandem Orthogonal Proteolysis Activity-Based Protein Profiling (isoTOP-ABPP). […]
The heavy/light isoTOP-ABPP ratios (R values) for each unique peptide (DMSO/compound treated) were quantified with in-house CIMAGE software (Weerapana et al., 2010) using default parameters (3 MS1 acquisitions per peak and signal to noise threshold set to 2.5). Site-specific engagement of cysteine residues was assessed by blockade of IA-alkyne probe labeling. […] Ratios for unique peptide sequences were calculated for each experiment; overlapping peptides with the same modified cysteine (e.g., different charge states, elution times or tryptic termini) were grouped together and the median ratio was reported as the final ratio (R). […]

T1 sequence (Q99836 whole entry): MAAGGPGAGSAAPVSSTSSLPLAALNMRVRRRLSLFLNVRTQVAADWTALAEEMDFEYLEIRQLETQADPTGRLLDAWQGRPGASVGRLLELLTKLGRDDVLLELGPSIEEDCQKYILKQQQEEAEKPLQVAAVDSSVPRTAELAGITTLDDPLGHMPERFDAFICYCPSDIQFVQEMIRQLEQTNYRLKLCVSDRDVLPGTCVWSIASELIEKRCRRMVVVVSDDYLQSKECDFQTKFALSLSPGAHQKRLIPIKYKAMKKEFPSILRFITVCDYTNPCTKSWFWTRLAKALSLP

As for `C=CC(=O)N(Cc1cccc(Cl)n1)c1ccc(C(=O)Nc2ccccc2)nc1` [BPK-25], the “labeling of C203 of MYD88” value is given as “direct labeling of C203”.
